Assay results as given in patent US8796305B2 (Bayer Pharma Aktiengesellschaft, priority 2012, dated 2014).
Where a name gives a salt, the structure may show the parent alone.

Target: T1, recombinant guanylate cyclase reporter cell line (Rattus norvegicus, UniProt P19686+P20595)
T1 construct: expressed in transfected cells
T1 sequence (P20595 1-619): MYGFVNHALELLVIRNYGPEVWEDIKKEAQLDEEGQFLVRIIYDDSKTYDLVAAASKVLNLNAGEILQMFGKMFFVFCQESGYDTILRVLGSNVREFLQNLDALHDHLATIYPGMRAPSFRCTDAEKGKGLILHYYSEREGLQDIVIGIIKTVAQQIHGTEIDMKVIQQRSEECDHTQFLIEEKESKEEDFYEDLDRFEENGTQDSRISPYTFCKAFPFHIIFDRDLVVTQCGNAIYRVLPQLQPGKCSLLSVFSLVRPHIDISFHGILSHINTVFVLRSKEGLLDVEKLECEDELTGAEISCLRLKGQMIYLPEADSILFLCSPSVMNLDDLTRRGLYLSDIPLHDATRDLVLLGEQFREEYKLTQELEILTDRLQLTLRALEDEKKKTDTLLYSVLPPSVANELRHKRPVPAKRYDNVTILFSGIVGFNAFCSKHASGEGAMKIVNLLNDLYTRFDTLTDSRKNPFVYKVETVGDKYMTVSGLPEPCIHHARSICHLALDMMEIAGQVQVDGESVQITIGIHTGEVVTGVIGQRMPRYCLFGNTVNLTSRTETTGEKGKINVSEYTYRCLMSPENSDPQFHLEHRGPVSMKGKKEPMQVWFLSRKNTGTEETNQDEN
T1 sequence (P19686 1-690): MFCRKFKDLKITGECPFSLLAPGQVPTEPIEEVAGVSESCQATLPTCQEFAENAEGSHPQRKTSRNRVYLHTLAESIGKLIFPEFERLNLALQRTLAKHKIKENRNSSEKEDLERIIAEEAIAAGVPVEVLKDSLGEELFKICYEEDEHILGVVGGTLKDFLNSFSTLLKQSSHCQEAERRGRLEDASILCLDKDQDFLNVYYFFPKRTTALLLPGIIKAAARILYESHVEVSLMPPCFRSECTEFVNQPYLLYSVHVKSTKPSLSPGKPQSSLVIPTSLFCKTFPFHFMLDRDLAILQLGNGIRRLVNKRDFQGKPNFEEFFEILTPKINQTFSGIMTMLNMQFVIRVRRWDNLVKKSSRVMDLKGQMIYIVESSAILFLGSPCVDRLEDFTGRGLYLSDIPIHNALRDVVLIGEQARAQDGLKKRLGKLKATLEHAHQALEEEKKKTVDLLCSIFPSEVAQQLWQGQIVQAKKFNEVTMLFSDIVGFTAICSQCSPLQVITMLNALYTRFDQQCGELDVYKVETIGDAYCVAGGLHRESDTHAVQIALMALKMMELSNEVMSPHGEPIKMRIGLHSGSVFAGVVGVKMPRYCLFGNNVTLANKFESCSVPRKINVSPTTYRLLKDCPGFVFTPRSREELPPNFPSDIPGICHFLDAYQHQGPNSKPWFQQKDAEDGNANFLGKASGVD
Test: Action on recombinant guanylate cyclase reporter cell line
Assay type: cell-based
Conditions: representative MEC values
Procedure: B-2. Action on Recombinant Guanylate Cyclase Reporter Cell Line
The cellular action of the compounds according to the invention is determined on a recombinant guanylate cyclase reporter cell line, as described in F. Wunder et al., Anal. Biochem. 339, 104-112 (2005).
Representative MEC values (MEC=minimal effective concentration) for the compounds according to the invention are shown in the following table: […]

MEC (minimal effective concentration) | Structure (SMILES)
0.3 µM | COC(=O)C(CCCC(F)(F)F)NC(=O)c1c(C)nc2c(OCc3c(F)cccc3F)cc(C)cn12 (racemic) [Example 12, rac-Methyl N-({8-[(2,6-difluorobenzyl)oxy]-2,6-dimethylimidazo[1,2-a]pyridin-3-yl}carbonyl)-6,6,6-trifluoronorleucinate]
3.0 µM | COC(=O)[C@@H](C)NC(=O)c1c(C)nc2c(OCc3c(F)cccc3F)cccn12 [Example 6, Methyl N-({8-[(2,6-difluorobenzyl)oxy]-2-methylimidazo[1,2-a]pyridin-3-yl}carbonyl)-D-alaninate]
1.0 µM | COC(=O)C(CCC(F)(F)F)NC(=O)c1c(C)nc2c(OCc3c(F)cccc3F)cccn12 (racemic) [Example 10, rac-Methyl N-({8-[(2,6-difluorobenzyl)oxy]-2-methylimidazo[1,2-a]pyridin-3-yl}carbonyl)-5,5,5-trifluoronorvalinate]
0.3 µM | COC(=O)C(CCCC(F)(F)F)NC(=O)c1c(C)nc2c(OCc3c(F)ccc(F)c3F)cc(C)cn12 (racemic) [Example 14, rac-Methyl N-({2,6-dimethyl-8-[(2,3,6-trifluorobenzyl)oxy]imidazo[1,2-a]pyridin-3-yl}carbonyl)-6,6,6-trifluoronorleucinate]
0.3 µM | COC(=O)C(NC(=O)c1c(C)nc2c(OCc3c(F)cccc3F)cccn12)c1ccc(Cl)cc1 (racemic) [Example 2, rac-Methyl (4-chlorophenyl)[({8-[(2,6-difluorobenzyl)oxy]-2-methylimidazo[1,2-a]pyridin-3-yl}carbonyl)amino]acetate]
0.1 µM | COC(=O)[C@H]1CC[C@H](CNC(=O)c2c(C)nc3c(OCc4c(F)cccc4F)cc(C)cn23)CC1 [Example 24, Methyl trans-4-{[({8-[(2,6-difluorobenzyl)oxy]-2,6-dimethylimidazo[1,2-a]pyridin-3-yl}carbonyl)-amino]methyl}cyclohexanecarboxylate]
1.0 µM | COC(=O)CCNC(=O)c1c(C)nc2c(OCc3c(F)cccc3F)cccn12 [Example 7, Methyl N-({8-[(2,6-difluorobenzyl)oxy]-2-methylimidazo[1,2-a]pyridin-3-yl}carbonyl)-beta-alaninate]
1.0 µM | CCCCC(NC(=O)c1c(C)nc2c(OCc3c(F)cccc3F)cccn12)C(=O)OC (racemic) [Example 8, rac-Methyl N-({8-[(2,6-difluorobenzyl)oxy]-2-methylimidazo[1,2-a]pyridin-3-yl}carbonyl)norleucinate]
1.0 µM | Cc1cc(OCc2c(F)cccc2F)c2nc(C)c(C(=O)NC[C@H]3CC[C@H](C(=O)O)CC3)n2c1 [Example 25, trans-4-{[({8-[(2,6-Difluorobenzyl)oxy]-2,6-dimethylimidazo[1,2-a]pyridin-3-yl}carbonyl)amino]methyl}cyclohexanecarboxylic acid]
0.065 µM | Cc1nc2c(OCC3CCCCC3)cccn2c1C(=O)NCCCCCCCC(=O)O [Example 20, 8-({[8-(Cyclohexylmethoxy)-2-methylimidazo[1,2-a]pyridin-3-yl]carbonyl}amino)octanoic acid]
0.3 µM | COC(=O)CCCCCCCNC(=O)c1c(C)nc2c(OCC3CCCCC3)cccn12 [Example 16]
1.0 µM | COC(=O)CC(NC(=O)c1c(C)nc2c(OCc3c(F)cccc3F)cccn12)C(F)(F)F (racemic) [Example 17, rac-Methyl 3-[({8-[(2,6-difluorobenzyl)oxy]-2-methylimidazo[1,2-a]pyridin-3-yl}carbonyl)-amino]-4,4,4-trifluorobutanoate]
0.3 µM | CCCCC(NC(=O)c1c(C)nc2c(OCc3c(F)cccc3F)cccn12)C(=O)OC (single isomer, unassigned; enantiomer a) [Example 18, ent-Methyl N-({8-[(2,6-difluorobenzyl)oxy]-2-methylimidazo[1,2-a]pyridin-3-yl}carbonyl)-norleucinate (Enantiomer A)]
0.1 µM | Cc1nc2c(OCc3c(F)cccc3F)cccn2c1C(=O)NCCCCCCCC(=O)O [Example 21, 8-[({8-[(2,6-Difluorobenzyl)oxy]-2-methylimidazo[1,2-a]pyridin-3-yl}carbonyl)amino]octanoic acid]
2.0 µM | CCCC[C@H](NC(=O)c1c(C)nc2c(OCc3c(F)cccc3F)cccn12)C(=O)O [Example 23, N-({8-[(2,6-Difluorobenzyl)oxy]-2-methylimidazo[1,2-a]pyridin-3-yl}carbonyl)norleucine hydrochloride]
3.0 µM | COC(=O)C(CC(F)(F)F)NC(=O)c1c(C)nc2c(OCc3c(F)cccc3F)cccn12 (racemic) [Example 9, rac-Methyl 2-[({8-[(2,6-difluorobenzyl)oxy]-2-methylimidazo[1,2-a]pyridin-3-yl}carbonyl)amino]-4,4,4-trifluorobutanoate]
1.0 µM | COC(=O)CCCCCCCNC(=O)c1c(C)nc2c(OCc3c(F)cccc3F)cccn12 [Example 15, Methyl 8-[({8-[(2,6-difluorobenzyl)oxy]-2-methylimidazo[1,2-a]pyridin-3-yl}carbonyl)amino]octanoate]
1.0 µM | COC(=O)CC(C)NC(=O)c1c(C)nc2c(OCc3c(F)cccc3F)cccn12 (racemic) [Example 4, rac-Methyl 3-[({8-[(2,6-difluorobenzyl)oxy]-2-methylimidazo[1,2-a]pyridin-3-yl}carbonyl)amino]butanoate]
1.0 µM | CCCCC(NC(=O)c1c(C)nc2c(OCc3c(F)cccc3F)cccn12)C(=O)OC (single isomer, unassigned; enantiomer b) [Example 19, ent-Methyl N-({8-[(2,6-difluorobenzyl)oxy]-2-methylimidazo[1,2-a]pyridin-3-yl}carbonyl)-norleucinate (Enantiomer B)]
0.3 µM | Cc1nc2c(OCc3c(F)cccc3F)cccn2c1C(=O)N[C@@H]1CCOC1=O [Example 3, 8-[(2,6-Difluorobenzyl)oxy]-2-methyl-N-[(3R)-2-oxotetrahydrofuran-3-yl]imidazo[1,2-a]pyridine-3-carboxamide]
0.3 µM | COC(=O)C(CCCC(F)(F)F)NC(=O)c1c(C)nc2c(OCc3c(F)cccc3F)cc(Cl)cn12 (racemic) [Example 13, rac-Methyl N-({6-chloro-8-[(2,6-difluorobenzyl)oxy]-2-methylimidazo[1,2-a]pyridin-3-yl}carbonyl)-6,6,6-trifluoronorleucinate]
0.3 µM | COC(=O)C(CCCC(F)(F)F)NC(=O)c1c(C)nc2c(OCc3c(F)cccc3F)cccn12 (racemic) [Example 11, rac-Methyl N-({8-[(2,6-difluorobenzyl)oxy]-2-methylimidazo[1,2-a]pyridin-3-yl}carbonyl)-6,6,6-trifluoronorleucinate]
0.3 µM | COC(=O)C(NC(=O)c1c(C)nc2c(OCc3c(F)cccc3F)cccn12)c1ccc(F)cc1 (racemic) [Example 1, rac-Methyl [({8-[(2,6-difluorobenzyl)oxy]-2-methylimidazo[1,2-a]pyridin-3-yl}carbonyl)amino]-(4-fluorophenyl)acetate]
0.3 µM | Cc1nc2c(OCC3CCCCC3)cccn2c1C(=O)NCCCCCC(=O)O [Example 22, 6-({[8-(Cyclohexylmethoxy)-2-methylimidazo[1,2-a]pyridin-3-yl]carbonyl}amino)hexanoic acid]
0.3 µM | COC(=O)C(C)(C)NC(=O)c1c(C)nc2c(OCc3c(F)cccc3F)cccn12 [Example 5, Methyl N-({8-[(2,6-difluorobenzyl)oxy]-2-methylimidazo[1,2-a]pyridin-3-yl}carbonyl)-2-methylalaninate]
